Test results taken from US12472197B2 (priority 2020, dated 2025).
Like-named read-outs stand apart in the source and are kept apart here.

Assays:
[1] = tested on: MERS-CoV (Jordan strain); format: cell-based; settings: Vero-76 cells
[2] = human, in vivo
[3] = human, in vivo; remark: listed apart in the source
[4] = Phase 1 single ascending dose study, intravenous administration in healthy human subjects; format: in vivo; settings: for AUC0-inf / AUC24 / CL / Cmax / Vz / t1/2 / AUCt: geometric mean, preliminary; for AUCt: t 120 h to 480 h
Procedure: The agent used in this Example was compound A (the compound of formula I, where A is NH2 and B is H as the HCL salt). A phase 1 double-blind, placebo-controlled, single ascending dose study was conducted to evaluate the safety, tolerability, and pharmacokinetics of Compound A administered by intravenous (IV) administration in healthy human subjects. Four cohorts were administered the study drug at the following doses: 5 mg/kg, 10 mg/kg, 15 mg/kg, and 20 mg/kg. Eight subjects received a single IV dose per cohort (6 subjects received Compound A; 2 subjects received matching placebo). Subject dosing was staggered as a safety precaution.
The plasma PK concentration-time profile of Compound A at all doses was characterized by an initial rapid distribution and clearance phase, and a slow terminal clearance phase. […] The inter-subject variability in exposure (Cmax and AUC) was low, as reflected in the geometric mean coefficients of variance (CVs) on these parameters. No subjects met any stopping criteria for any cohort.

[5] = tested on: SARS-CoV (Urbani strain); format: cell-based; settings: Vero-76 cells
[6] = tested on: SARS-CoV-2; assay: Randomized placebo-controlled dose-ranging study, IV infusion in hospitalized adults with COVID-19 (Part 1)
[7] = human, in vivo; remark: listed apart in the source
[8] = tested on: SARS-CoV-2 (WA1/2020 isolate); assay: SARS-CoV-2 hamster model of infection; settings: for lung tissue histopathology (total histology score) vs vehicle control: Days +3 and +7; for lung viral burden lower than vehicle control: 100 mg/kg BID i.p., Day 3 post-infection
[9] = NOAEL exposure in NHP; format: in vivo; settings: 30 mg/kg dose
[10] = tested on: Vero76 cells
[11] = tested on: SARS-CoV-2 (WA1/2020 strain); assay: Virus yield reduction (VYR) assay, SARS-CoV-2 in Vero76 cells; format: cell-based; settings: for EC90: Vero76 cells
[12] = EC50 adjusted with CLE, read-out: Adjusted EC50
[13] = NR uptake, MOI 0.001, 3 days, read-out: EC50

Nc1ncnc2c([C@@H]3N[C@H](CO)[C@@H](O)[C@H]3O)c[nH]c12 [Compound A]
EC50 [1, 12]: 2.15 µM
EC50 [1, 13]: 26.9 µM
safety and tolerability [2]: generally safe and well tolerated
safety and tolerability [3]: generally safe and well tolerated
AUC0-inf ([4]; single IV dose 5 mg/kg): 21200 ng·h/mL
AUC24 ([4]; single IV dose 5 mg/kg): 10950 ng·h/mL
CL ([4]; single IV dose 5 mg/kg): 17.1 L/h
Cmax ([4]; single IV dose 5 mg/kg): 5540 ng/mL
Vz ([4]; single IV dose 5 mg/kg): 2725 L
t1/2 ([4]; single IV dose 5 mg/kg): 111 h
AUCt ([4]; single IV dose 5 mg/kg): 17100 ng·h/mL
AUC0-inf ([4]; single IV dose 10 mg/kg): 37100 ng·h/mL
AUC24 ([4]; single IV dose 10 mg/kg): 21070 ng·h/mL
CL ([4]; single IV dose 10 mg/kg): 20.7 L/h
Cmax ([4]; single IV dose 10 mg/kg): 10300 ng/mL
Vz ([4]; single IV dose 10 mg/kg): 3049 L
t1/2 ([4]; single IV dose 10 mg/kg): 114.5 h
AUCt ([4]; single IV dose 10 mg/kg): 32400 ng·h/mL
AUC0-inf ([4]; single IV dose 15 mg/kg): 65900 ng·h/mL
AUC24 ([4]; single IV dose 15 mg/kg): 34370 ng·h/mL
CL ([4]; single IV dose 15 mg/kg): 16.7 L/h
Cmax ([4]; single IV dose 15 mg/kg): 17700 ng/mL
Vz ([4]; single IV dose 15 mg/kg): 4138 L
t1/2 ([4]; single IV dose 15 mg/kg): 182.5 h
AUCt ([4]; single IV dose 15 mg/kg): 59900 ng·h/mL
AUC0-inf ([4]; single IV dose 20 mg/kg): 81200 ng·h/mL
AUC24 ([4]; single IV dose 20 mg/kg): 44770 ng·h/mL
CL ([4]; single IV dose 20 mg/kg): 17.9 L/h
Cmax ([4]; single IV dose 20 mg/kg): 20500 ng/mL
Vz ([4]; single IV dose 20 mg/kg): 4010 L
t1/2 ([4]; single IV dose 20 mg/kg): 133.5 h
AUCt ([4]; single IV dose 20 mg/kg): 73400 ng·h/mL
safety and tolerability ([4]; single IV dose 5-20 mg/kg, healthy subjects): generally safe and well tolerated
dose proportionality of Cmax, AUCt and AUCinf ([4]; single IV doses 5-20 mg/kg): increased in dose-proportional manner
EC50 [5, 12]: 4.6 µM
EC50 [5, 13]: 57.7 µM
safety and tolerability ([6]; Cohorts 1-3, IV loading/maintenance regimens for 7 days, hospitalized COVID-19 patients): safe and generally well tolerated
clinical efficacy compared to placebo ([6]; Cohorts 1-3, Part 1 not sized for efficacy): no clinical efficacy benefit
decline in viral RNA levels in the respiratory tract ([6]; Cohorts 1-3, apparent dose-dependent manner): more rapid decline in viral RNA levels in the respiratory tract
time to a negative viral RNA result in LRT samples compared to placebo ([6]; Cohorts 1-3, shortest in Cohorts 2 and 3): shorter time to a negative viral RNA result
dose proportionality of exposure [7]: dose-proportional and linear with increasing dose
safety and tolerability [7]: generally safe and well tolerated
time after administration at which plasma concentrations were maximal [7]: 1 to 2 h
increase in exposure (AUC) with repeat dosing ([7]; im): approximately 1.5 fold
t1/2 ([7]; im, 2.5 mg/kg): 104 (15.9) h
t1/2 ([7]; im, 5 mg/kg): 85.7 (17.3) h
AUC0-24 ([7]; im, 10 mg/kg): 20300 ng·h/mL
AUCtau ([7]; im, 10 mg/kg): 34500 ng·h/mL
Cmax ([7]; im, 10 mg/kg): 7980 ng/mL
Tmax ([7]; im, 10 mg/kg): 0.375 h
t1/2 ([7]; im, 10 mg/kg): 113 (26.4) h
lung tissue histopathology (total histology score) vs vehicle control ([8]; Group 1 (first dose −24 hours)): reduced/no tissue histopathology as compared with vehicle control
animals that achieved PFU<10 (lower limit of quantification) in OP swabs ([8]; Group 1, 100 mg/kg BID i.p., first dose −24 hr): 62.5%
weight loss ([8]; Group 1, 100 mg/kg BID i.p., first dose −24 hr relative to infection): < 5%
lung tissue histopathology (total histology score) vs vehicle control ([8]; Group 2 (first dose +1.5 hours)): reductions relative to vehicle control
lung viral burden lower than vehicle control ([8]; Group 3 (first dose +24 hours)): ~0.66 log
clinical scores, adverse impact of dosing ([8]; Groups 1-3, 100 mg/kg BID i.p.): no adverse impact
lung viral burden lower than vehicle control ([8]; Groups 1 and 2 (first dose −24 and +1.5 hours)): 1.4-1.6 log
NOAEL exposure [9]: approximately 52,500 ng*h/mL
CC50 [10]: > 296 µM
EC90 ([11]; EC90 adjusted with CLE, read-out: Adjusted EC90): 0.87 µM
SI ([11]; SI=CC50/EC90, Vero76 cells): >27
EC90 ([11]; VYR at day 3, MOI 0.002, compound added 24 hours prior to infection, read-out: EC90): 10.9 µM
